Tests used:
BL21(DE3) E. coli = assay: Bacterial DNA deaminase rifampicin mutagenesis assay (acquired rifampin resistance); format: cell-based; details: expression in E. coli
Protocol: In initial studies, a foreign protein/domain was inserted into an enhanced hyperactive version of AID described in U.S. patent application Ser. No. 16/025,261 (See for example, SEQ ID NO: 20 of the '261 patent application) which is incorporated herein by reference as though set forth in full. This mutant version of the human DNA deaminase AID, involved in antibody maturation was assessed and the loop regions which appeared to be tolerant to insertion of control elements (e.g., Green Fluorescent Protein GFP fragments) were identified as described hereinbelow. Several candidate locations for insertion were identified. We used an E. coli-based rifampin mutagenesis assay to evaluate activity (See Kohli et al., J Biol Chem. (2009) 284:pages 22898-904). In this assay we measure the activity level of a mutator by measuring how many E. coli can be turned resistant to the antibiotic rifampin when the enzyme is turned on.
The mutation frequency of various DNA deaminases, including insertion constructs, were determined using a modified version of previously reported rifampin mutagenesis assay (Kohli, JBC 2009). […] The mutation frequencies were then calculated by the ratio of rifampicin resistant colonies to total population. […]

[1] = tested on: fluorescein (FAM)-labeled oligonucleotide substrate containing a single cytosine; assay: In vitro DNA deaminase oligonucleotide assay; format: biochemical; details: result in words
Protocol: For in vitro assays, purified intact, optGFP-inserted, or split DNA deaminases were expressed in BL21(DE3) cells that co-express the Trigger Factor (TF) chaperone, as previously described^33. Briefly, 600 mL cultures were grown to an OD600 of 0.6 at 37° C. Cultures were shifted to 16° C. for 16 hours after induction with 1 mM IPTG. For AID variants, the pelleted cells were resuspended in 50 mM Tris-Cl (pH 7.5) 150 mM NaCl, 10% glycerol (wash buffer) and lysed through sonication. The soluble fraction was filtered after high-speed centrifugation and incubated with 3 mL of Amylose Resin (NEB) for 1 hr at 4° C. The resin was washed extensively prior to elution with wash buffer plus 10 mM maltose. Total protein was quantified by comparison to a BSA standard curve. For A3A variants, the pelleted cells were resuspended in 50 mM Tris-Cl (pH 7.5) 150 mM NaCl, 10% glycerol, 25 mM imidazole (wash buffer) and lysed through sonication. The soluble fraction was filtered after high-speed centrifugation and incubated with 3 mL of HisPur cobalt resin (Thermo) for 1 hr at 4° C. […]
For the in vitro assay, a fluorescein (FAM)-labeled oligonucleotide substrate was used containing a single cytosine, along with a product control oligonucleotide containing uracil at the same location. […] Product formation was quantified using ImageJ by taking the ratio of substrate to product under each condition. […]

## AID(WT): unmutated AID (activation induced deaminase)
BL21(DE3) E. coli
  Rif^R increase relative to catalytically inactive mutant AID(E58A): 12 fold

## A3A: human A3 enzyme APOBEC3A DNA deaminase
[1]
  in vitro deaminase activity: tolerated optGFP insertion

Source: patent US20230070731A1, “COMPOSITIONS FOR SMALL MOLECULE CONTROL OF PRECISE BASE EDITING OF TARGET NUCLEIC ACIDS AND METHODS OF USE THEREOF” (THE TRUSTEES OF THE UNIVERSITY OF PENNSYLVANIA, priority 2020, published 2023)
